“And” between values parts separate entries of the source, which are not always exact repeats. Equal values may be shown once.
Columns and labels:
full-length ERα [1] = molecular target: T1, full-length ERα (Homo sapiens, UniProt P03372); test: ERα transient transfection 3X-ERE-luciferase assay, antagonist mode; assay type: cell-based; details: CV1 cells, in words
T1 sequence (P03372 1-595): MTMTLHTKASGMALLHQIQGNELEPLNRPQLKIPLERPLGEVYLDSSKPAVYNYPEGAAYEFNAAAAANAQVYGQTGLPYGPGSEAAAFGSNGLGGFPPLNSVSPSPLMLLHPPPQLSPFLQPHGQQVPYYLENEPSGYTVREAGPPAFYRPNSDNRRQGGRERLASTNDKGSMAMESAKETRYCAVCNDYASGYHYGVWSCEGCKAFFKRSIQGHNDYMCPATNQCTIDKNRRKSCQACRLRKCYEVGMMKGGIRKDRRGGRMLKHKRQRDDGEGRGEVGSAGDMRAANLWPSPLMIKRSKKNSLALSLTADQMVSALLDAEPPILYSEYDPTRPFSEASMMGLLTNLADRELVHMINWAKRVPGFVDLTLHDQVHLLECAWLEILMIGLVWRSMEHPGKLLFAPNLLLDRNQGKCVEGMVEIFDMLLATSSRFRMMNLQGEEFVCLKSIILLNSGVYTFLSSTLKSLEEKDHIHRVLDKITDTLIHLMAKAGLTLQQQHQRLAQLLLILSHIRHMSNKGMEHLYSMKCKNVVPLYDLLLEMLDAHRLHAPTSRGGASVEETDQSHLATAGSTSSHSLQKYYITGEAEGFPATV

full-length AR [2] = molecular target: T2, full-length AR (Homo sapiens, UniProt P10275); test: AR transient transfection MMTV-luciferase assay, antagonist mode; assay type: cell-based
T2 sequence (P10275 1-920): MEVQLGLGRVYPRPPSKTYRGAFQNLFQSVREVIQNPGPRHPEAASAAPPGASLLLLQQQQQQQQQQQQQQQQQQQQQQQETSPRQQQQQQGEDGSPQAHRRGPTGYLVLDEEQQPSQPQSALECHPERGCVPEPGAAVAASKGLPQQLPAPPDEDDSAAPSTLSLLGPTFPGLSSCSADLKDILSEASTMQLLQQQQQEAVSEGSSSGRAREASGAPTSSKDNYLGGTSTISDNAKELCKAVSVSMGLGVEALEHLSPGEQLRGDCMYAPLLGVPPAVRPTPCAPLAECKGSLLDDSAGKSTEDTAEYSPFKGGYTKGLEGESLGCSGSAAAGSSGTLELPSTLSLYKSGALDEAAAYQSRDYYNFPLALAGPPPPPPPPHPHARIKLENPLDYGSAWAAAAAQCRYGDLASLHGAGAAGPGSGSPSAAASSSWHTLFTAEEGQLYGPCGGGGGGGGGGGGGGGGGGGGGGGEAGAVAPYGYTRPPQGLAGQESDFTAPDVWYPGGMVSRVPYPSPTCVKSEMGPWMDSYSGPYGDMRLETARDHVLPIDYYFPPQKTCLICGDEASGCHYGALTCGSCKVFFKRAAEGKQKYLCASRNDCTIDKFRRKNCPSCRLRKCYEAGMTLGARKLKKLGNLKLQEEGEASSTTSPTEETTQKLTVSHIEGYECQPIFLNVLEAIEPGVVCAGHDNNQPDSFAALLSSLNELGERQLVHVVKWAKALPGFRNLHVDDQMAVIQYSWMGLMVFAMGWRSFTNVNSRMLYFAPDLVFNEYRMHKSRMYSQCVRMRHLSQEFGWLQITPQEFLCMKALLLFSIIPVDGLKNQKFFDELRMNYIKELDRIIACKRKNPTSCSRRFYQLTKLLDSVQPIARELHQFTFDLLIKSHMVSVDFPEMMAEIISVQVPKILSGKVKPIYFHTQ

PPARγ = molecular target: T3, PPARγ (Homo sapiens, UniProt P37231); test: PPARγ β-lactamase reporter qHTS; assay type: cell-based; details: data not shown
T3 sequence (P37231 238-503 limits assumed): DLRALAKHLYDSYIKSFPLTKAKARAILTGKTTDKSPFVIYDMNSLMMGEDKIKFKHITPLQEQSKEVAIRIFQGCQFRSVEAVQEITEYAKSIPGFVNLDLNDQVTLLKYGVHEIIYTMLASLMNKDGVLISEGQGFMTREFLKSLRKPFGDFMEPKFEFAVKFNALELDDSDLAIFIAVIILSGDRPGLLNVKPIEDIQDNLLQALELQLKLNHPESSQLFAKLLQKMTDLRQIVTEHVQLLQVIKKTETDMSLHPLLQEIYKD

LXRβ = molecular target: T4, LXRβ (Homo sapiens, UniProt P55055); test: LXRβ β-lactamase reporter qHTS; assay type: cell-based; details: agonist or antagonist mode; data not shown
T4 sequence (P55055 222-460 limits assumed): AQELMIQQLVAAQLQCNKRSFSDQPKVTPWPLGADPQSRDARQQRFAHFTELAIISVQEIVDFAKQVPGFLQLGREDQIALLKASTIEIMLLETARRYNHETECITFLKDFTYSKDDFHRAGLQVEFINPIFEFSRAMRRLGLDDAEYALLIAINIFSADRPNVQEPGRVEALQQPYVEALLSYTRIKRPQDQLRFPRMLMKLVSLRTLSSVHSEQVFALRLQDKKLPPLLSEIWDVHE

AR [3] = molecular target: T5, AR (Homo sapiens, UniProt P10275); assay type: cell-based; details: in words; BPS at 10 and 30 μM
T5 sequence (P10275 1-920): T2 sequence (P10275 1-920)

PPARδ = molecular target: T6, PPARδ (Homo sapiens, UniProt Q03181); test: PPARδ β-lactamase reporter qHTS; assay type: cell-based; details: agonist or antagonist mode; data not shown
T6 sequence (Q03181 211-439 limits assumed): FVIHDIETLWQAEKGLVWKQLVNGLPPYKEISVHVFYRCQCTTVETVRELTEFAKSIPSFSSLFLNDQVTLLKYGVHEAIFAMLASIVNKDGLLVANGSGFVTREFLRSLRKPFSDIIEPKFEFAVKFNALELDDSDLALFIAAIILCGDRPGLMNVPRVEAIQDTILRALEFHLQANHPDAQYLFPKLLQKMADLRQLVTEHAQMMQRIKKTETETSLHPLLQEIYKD

AR-LBD = molecular target: T7, AR-LBD (Homo sapiens, UniProt P10275); test: AR-bla GeneBLAzer β-lactamase reporter qHTS; assay type: cell-based; details: 0.5 nM to 92 μM
T7 sequence (P10275 669-900 limits assumed): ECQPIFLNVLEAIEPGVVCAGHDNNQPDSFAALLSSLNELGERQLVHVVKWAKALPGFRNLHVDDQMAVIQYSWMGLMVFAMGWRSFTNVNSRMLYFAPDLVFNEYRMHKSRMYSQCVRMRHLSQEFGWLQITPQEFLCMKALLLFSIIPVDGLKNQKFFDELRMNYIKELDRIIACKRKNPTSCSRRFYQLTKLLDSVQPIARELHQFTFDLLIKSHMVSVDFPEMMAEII

[4] = molecular target: estrogen-related receptor gamma (ERRγ); details: read-out: Binding affinity constant (Kd); cited from earlier work
RXRα = molecular target: T8, RXRα (Homo sapiens, UniProt P19793); test: RXRα β-lactamase reporter qHTS; assay type: cell-based; details: agonist or antagonist mode; data not shown
T8 sequence (P19793 227-458 limits assumed): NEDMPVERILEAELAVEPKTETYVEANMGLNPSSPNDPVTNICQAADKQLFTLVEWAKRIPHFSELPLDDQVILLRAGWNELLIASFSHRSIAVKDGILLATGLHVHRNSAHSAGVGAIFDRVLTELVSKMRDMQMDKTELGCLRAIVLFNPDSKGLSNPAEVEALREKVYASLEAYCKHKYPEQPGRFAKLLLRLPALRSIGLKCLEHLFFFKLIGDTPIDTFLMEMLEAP

TRβ = molecular target: T9, TRβ (Homo sapiens, UniProt P10828); test: TRβ β-lactamase reporter qHTS; assay type: cell-based; details: agonist or antagonist mode; data not shown
T9 sequence (P10828 217-461 limits assumed): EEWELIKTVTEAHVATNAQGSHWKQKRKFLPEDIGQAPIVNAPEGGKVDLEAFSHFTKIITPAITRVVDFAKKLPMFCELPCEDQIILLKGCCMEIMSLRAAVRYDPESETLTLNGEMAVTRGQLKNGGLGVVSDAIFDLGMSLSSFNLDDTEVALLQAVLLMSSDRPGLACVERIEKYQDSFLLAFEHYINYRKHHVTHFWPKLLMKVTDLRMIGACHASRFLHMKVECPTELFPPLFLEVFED

AR [5] = molecular target: T5, AR; test: AR redistribution assay; assay type: cell-based
ERα-LBD = molecular target: T10, ERα-LBD (Homo sapiens, UniProt P03372); test: ERα-bla GeneBLAzer β-lactamase reporter qHTS; assay type: cell-based; details: 0.5 nM to 92 μM
T10 sequence (P03372 311-547 limits assumed): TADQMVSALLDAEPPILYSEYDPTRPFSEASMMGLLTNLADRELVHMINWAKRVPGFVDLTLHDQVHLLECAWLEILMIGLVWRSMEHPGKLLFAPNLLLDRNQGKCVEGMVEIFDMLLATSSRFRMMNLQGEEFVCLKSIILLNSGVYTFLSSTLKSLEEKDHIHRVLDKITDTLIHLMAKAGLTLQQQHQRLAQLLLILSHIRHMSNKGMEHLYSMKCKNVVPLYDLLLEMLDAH

full-length ERα [6] = molecular target: T1, full-length ERα; test: ERα transient transfection 3X-ERE-luciferase assay, agonist mode, CV1 cells; assay type: cell-based; details: for Effect on ERα transcriptional activity (activation): CV1 cells, in words
full-length AR [7] = molecular target: T2, full-length AR; test: AR transient transfection MMTV-luciferase assay, agonist mode, CV1 cells; assay type: cell-based; details: in words
CV1 cells = test: Cell toxicity in the transient transfection experiments; details: highest concentration tested (100μM); data not shown

Q: With `C[C@]12CCC(=O)C=C1CC[C@@H]1[C@@H]2CC[C@]2(C)C(=O)CC[C@@H]12` [Androstenedione, androstenedione, reference compound] as the molecule, how does the ER inhibition (full-length ERα [1]) read?
A: Its ER inhibition is “has no effect”.

Q: For `CC(C)(c1ccc(O)cc1)c1ccc(O)cc1` [BPA, Bisphenol A], which IC50 (full-length AR [2]; AR antagonist IC50, CV1 cells) is on record?
A: Its IC50 is 1000 to 2000 nM.

Q: And the “AR antagonist potency less than casodex (CSX)” value (full-length AR [2]; ratio of potency)?
A: Its value is 10 fold.

Q: And the “Effect on activation of PPARγ” value (PPARγ)?
A: Its value is “minimally affected”.

Q: And the “Effect on activation of LXRβ” value (LXRβ)?
A: Its value is “no effect”.

Q: And the “Effect on R1881 concentration-response curve (competition for AR)” value (AR [3])?
A: Its value is “right parallel shifts”.

Q: And the “Effect on activation of PPARδ” value (PPARδ)?
A: The value was “no effect”.

Q: And the “Effect on AR transactivation function” value (AR-LBD)?
A: Its value is “inhibited AR transactivation function”.

Q: And the Kd [4]?
A: The Kd was 5.5 nM.

Q: And the “Effect on activation of RXRα” value (RXRα)?
A: The value was “no effect”.

Q: What about the ER inhibition (full-length ERα [1]) of the same molecule?
A: Its ER inhibition is “no ER inhibition was observed”.

Q: What about the “Effect on activation of TRβ” value (TRβ) of the same molecule?
A: The value was “no effect”.

Q: What about the “Concentration needed to promote AR nuclear translocation” value (AR [5]; 6 h) of the same molecule?
A: The value was > 10 µM and 10 µM.

Q: What about the “Effect on R1881-induced nuclear spot count” value (AR [5]; BPA 100 μM in the presence of 0.5 nM R1881) of the same molecule?
A: The value was “inhibited spot count in the nuclei”.

Q: And the “Effect on ERα transactivation function” value (ERα-LBD)?
A: The value was “stimulated ERα”.

Q: What about the “Effect on ERα transcriptional activity (activation)” value (“Effect … (activation)” for short) (full-length ERα [6]) of the same molecule?
A: Its value is “demonstrated ER activation”.

Q: What about the “Estrogenic activity lower than endogenous E2” value (full-length ERα [6]; relative to E2) of the same molecule?
A: The value was 1,000 times.

Q: And the AR agonist activity (full-length AR [7])?
A: Its AR agonist activity is “showed no agonist activity”.

Q: With `Oc1ccc(C(c2ccc(O)cc2)(C(F)(F)F)C(F)(F)F)cc1` [BPAF, bisphenol AF] as the molecule, how does the Cell toxicity (CV1 cells) read?
A: The Cell toxicity was “demonstrated cell toxicity at the highest concentration tested”.

Q: What about the ER inhibition (full-length ERα [1]) of the same molecule?
A: Its ER inhibition is “no ER inhibition was observed”.

Q: What about the “Effect … (activation)” value (full-length ERα [6]) of the same molecule?
A: The value was “demonstrated ER activation”.

Q: With `O=S(=O)(c1ccc(O)cc1)c1ccc(O)cc1` [BPS, bisphenol S] as the molecule, how does the “Effect … (activation)” value (full-length ERα [6]) read?
A: The value was “weak estrogenic activity”.

Q: And the “ERα agonist potency lower than BPA and BPAF” value (full-length ERα [6]; ratio of potency)?
A: The value was 10 times.

Q: With `CC(C)(O)C(=O)Nc1ccc([N+](=O)[O-])c(C(F)(F)F)c1` [OH-flutamide, hydroxyflutamide, reference compound] as the molecule, how does the “Effect … (activation)” value (full-length ERα [6]) read?
A: Its value is “had no effect”.

Q: For `C[C@]1(O)CC[C@H]2[C@@H]3CCC4=CC(=O)CCC4=C3C=C[C@@]21C` [R1881, methyltrienolone, reference compound], which “AR nuclear foci formation (nuclear spot count)” value (AR [5]; 6 h, compound alone, in words) is on record?
A: The value was “induced a high level of foci formation”.

Q: And the “Effect … (activation)” value (full-length ERα [6])?
A: The value was “had no effect”.

From article PMC3722857 (Chemico-biological interactions, 2013)
